Experimental data as given in ChEMBL document CHEMBL1143114, “Preparation and affinity profile of novel nicotinic ligands” (Bioorg Med Chem Lett, 2008).
Active and inactive are the calls of the source. No cut-off for these calls is given here.

Tests used:
[1] = target: Neuronal acetylcholine receptor; alpha4/beta2 (Rattus norvegicus, UniProt P09483+P12390); assay: Displacement of [3H]cystisine from nicotinic alpha-4-beta-2 receptor in rat brain; assay type: tissue-based
[2] = target: Muscarinic acetylcholine receptor; assay: Displacement of [3H]oxotremorine from muscarinic receptor in rat brain; assay type: tissue-based
[3] = target: Neuronal acetylcholine receptor subunit alpha-7 (Rattus norvegicus, UniProt Q05941); assay: Displacement of [3H]alpha-bungaro-toxine from nicotinic alpha-7 receptor in rat brain; assay type: tissue-based
Chain of Neuronal acetylcholine receptor subunit alpha-7 (Q05941 whole entry): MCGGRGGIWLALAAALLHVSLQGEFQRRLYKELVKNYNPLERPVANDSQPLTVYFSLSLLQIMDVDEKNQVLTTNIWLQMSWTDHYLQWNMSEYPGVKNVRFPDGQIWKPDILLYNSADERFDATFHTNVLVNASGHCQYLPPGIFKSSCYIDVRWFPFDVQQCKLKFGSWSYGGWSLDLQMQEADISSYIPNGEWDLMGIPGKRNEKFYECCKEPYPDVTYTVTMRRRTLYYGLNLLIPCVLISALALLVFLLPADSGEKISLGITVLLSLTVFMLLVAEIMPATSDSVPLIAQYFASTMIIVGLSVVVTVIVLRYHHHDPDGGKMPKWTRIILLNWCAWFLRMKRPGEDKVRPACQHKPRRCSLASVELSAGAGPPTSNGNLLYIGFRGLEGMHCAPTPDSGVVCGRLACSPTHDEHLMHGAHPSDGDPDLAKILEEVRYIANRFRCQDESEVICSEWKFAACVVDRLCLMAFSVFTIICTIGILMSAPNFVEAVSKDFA

Rattus norvegicus [4] = organism: Rattus norvegicus; assay: Increase in cortical acetyl choline levels in rat by microdialysis; assay type: functional, organism-based
Rattus norvegicus [5] = organism: Rattus norvegicus; assay: Effect on memory in Wistar rat by social recognition test; assay type: functional, organism-based

Chain of Neuronal acetylcholine receptor; alpha4/beta2 (P09483 whole entry): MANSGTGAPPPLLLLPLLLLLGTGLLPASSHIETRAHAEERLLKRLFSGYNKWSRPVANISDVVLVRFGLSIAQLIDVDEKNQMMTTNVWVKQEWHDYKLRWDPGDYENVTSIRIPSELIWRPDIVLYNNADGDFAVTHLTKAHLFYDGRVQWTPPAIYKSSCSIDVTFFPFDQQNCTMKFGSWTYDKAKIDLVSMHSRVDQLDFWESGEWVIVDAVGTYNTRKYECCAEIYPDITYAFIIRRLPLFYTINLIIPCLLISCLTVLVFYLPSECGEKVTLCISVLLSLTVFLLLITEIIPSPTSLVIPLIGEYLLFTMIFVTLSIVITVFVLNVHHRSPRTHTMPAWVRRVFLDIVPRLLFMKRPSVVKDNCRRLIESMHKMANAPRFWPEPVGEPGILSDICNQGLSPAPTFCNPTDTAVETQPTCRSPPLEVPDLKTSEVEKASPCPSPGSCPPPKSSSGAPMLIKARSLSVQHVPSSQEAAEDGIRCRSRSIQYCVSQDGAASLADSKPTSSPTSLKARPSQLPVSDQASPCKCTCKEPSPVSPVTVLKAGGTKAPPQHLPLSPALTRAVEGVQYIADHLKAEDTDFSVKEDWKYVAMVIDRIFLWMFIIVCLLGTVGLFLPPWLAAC
Chain of Neuronal acetylcholine receptor; alpha4/beta2 (P12390 whole entry): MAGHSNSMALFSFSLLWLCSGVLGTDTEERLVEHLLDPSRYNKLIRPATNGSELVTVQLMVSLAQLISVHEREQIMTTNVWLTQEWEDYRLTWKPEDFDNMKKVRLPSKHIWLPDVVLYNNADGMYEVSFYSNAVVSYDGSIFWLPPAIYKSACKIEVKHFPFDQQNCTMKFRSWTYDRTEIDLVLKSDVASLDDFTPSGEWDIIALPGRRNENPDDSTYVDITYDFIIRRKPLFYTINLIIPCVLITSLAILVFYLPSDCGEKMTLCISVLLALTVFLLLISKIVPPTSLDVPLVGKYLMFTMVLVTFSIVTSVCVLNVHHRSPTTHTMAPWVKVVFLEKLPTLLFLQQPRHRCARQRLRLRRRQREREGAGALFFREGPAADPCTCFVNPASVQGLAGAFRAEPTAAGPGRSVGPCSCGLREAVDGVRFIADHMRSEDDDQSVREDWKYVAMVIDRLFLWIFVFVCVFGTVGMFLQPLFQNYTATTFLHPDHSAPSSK

| Compound | Ki [1] | Ki [2] | Ki [3] | Activity (Rattus norvegicus [4]) | Activity (Rattus norvegicus [5]) |
| --- | --- | --- | --- | --- | --- |
| CNC1(CCc2cccnc2)CC1.Cl | 251 nM | > 10000 nM | 1910 nM |  |  |
| CNC1(CCCOc2cccnc2)CC1.O=C(O)/C=C/C(=O)O | 2460 nM | > 10000 nM | > 10000 nM |  |  |
| CNC1(COc2cnc(Cl)c(Br)c2)CC1.Cl | 5.37 nM | > 10000 nM | > 10000 nM |  |  |
| CNC1(COc2ccc(Br)nc2)CC1.Cl | 38.8 nM | > 10000 nM | > 10000 nM |  |  |
| C=Cc1cncc(OCC2(NC)CC2)c1.Cl | 70.1 nM | > 10000 nM | > 10000 nM |  |  |
| C#Cc1cncc(OCC2(NC)CC2)c1.Cl | 6.56 nM | > 10000 nM | > 10000 nM |  |  |
| CNC1(CCOc2cccnc2)CC1.O=C(O)/C=C/C(=O)O | 109 nM | > 10000 nM | > 10000 nM |  |  |
| CN(C)C1(COc2cncc(Br)c2)CC1 | 273 nM |  |  |  |  |
| c1cncc(OCC2(N3CCCC3)CC2)c1 | 1610 nM | > 10000 nM | > 10000 nM |  |  |
| CN(C)C1(COc2ccc(Cl)nc2)CC1 | 304 nM |  |  |  |  |
| CNC1(/C=C\COc2cccnc2)CC1.Cl | 2280 nM | > 10000 nM | > 10000 nM |  |  |
| CCNC1(COc2cccnc2)CC1 | 1010 nM | > 10000 nM | > 10000 nM |  |  |
| CN(C)C1(COc2cnc(Cl)c(Br)c2)CC1 | 110 nM |  |  |  |  |
| CN(C)C1(COc2cccnc2)CC1.Cl | 95 nM | > 10000 nM | > 10000 nM |  |  |
| CN(C)C1(COc2ccc(Br)nc2)CC1 | 394 nM |  |  |  |  |
| Cc1ccc(OCC2(N)CC2)cn1 | 266 nM |  |  |  |  |
| Cc1ccc(OCC2(N(C)C)CC2)cn1 | 1090 nM |  |  |  |  |
| NC1(COc2ccc(Cl)nc2)CC1 | 98 nM |  |  |  |  |
| CNC1(/C=C/c2cccnc2)CC1.O=C(O)/C=C/C(=O)O | 1160 nM | > 10000 nM | 3460 nM |  |  |
| CNC1(/C=C/COc2cccnc2)CC1.Cl | 1100 nM | > 10000 nM | > 10000 nM |  |  |
| CNC1(COc2cncc(Br)c2)CC1.Cl | 1.07 nM | > 10000 nM | > 10000 nM |  |  |
| Cl.NC1(COc2cccnc2)CC1 | 34 nM | > 10000 nM | > 10000 nM |  |  |
| CNC1(COc2cccnc2)CC1.Cl | 3 nM | > 10000 nM | > 10000 nM | Dose-dependent effect | Active |
| CNC1(COc2ccc(Cl)nc2)CC1.Cl | 13 nM | > 10000 nM | > 10000 nM |  |  |
| CNC1(COc2ccc(C)nc2)CC1.Cl | 40 nM | > 10000 nM | > 10000 nM |  |  |
